Structures can show the parent of a compound that is named as a salt. Where two headings read alike, the source gives them in different places. Each block holds one molecule with its values, some of them ahead of it.
Assays:
hCA IX = hCA IX (Homo sapiens, UniProt Q16790); test: CA CO2 hydrase activity assay, tumor-associated isozyme hCA IX
Experimental: An SX.18MV-R Applied Photophysics stopped-flow instrument has been used for assaying the CA CO2 hydration activity assays [44]. […] Inhibitor and enzyme solutions were preincubated together for 10 min at room temperature prior to assay, in order to allow for the formation of the E-I complex.

human red cells = details: for [sulfonamide] in red blood cells, EI / [sulfonamide] in red blood cells, ES / [sulfonamide] in red blood cells, HPLC: human, 2 mM, pH 7.4
bCA IV = target: T1, bCA IV (Bos taurus, UniProt Q95323); test: CA esterase activity assay, isozyme bCA IV; assay type: biochemical, bovine; details: Table 3; from bovine lung microsomes, esterase assay method; read-out: KI bCA IV
T1 construct: CA IV was isolated from bovine lung microsomes as described by Maren et al; from tissue; host or cells: bovine lung microsomes
T1 sequence (Q95323 19-284): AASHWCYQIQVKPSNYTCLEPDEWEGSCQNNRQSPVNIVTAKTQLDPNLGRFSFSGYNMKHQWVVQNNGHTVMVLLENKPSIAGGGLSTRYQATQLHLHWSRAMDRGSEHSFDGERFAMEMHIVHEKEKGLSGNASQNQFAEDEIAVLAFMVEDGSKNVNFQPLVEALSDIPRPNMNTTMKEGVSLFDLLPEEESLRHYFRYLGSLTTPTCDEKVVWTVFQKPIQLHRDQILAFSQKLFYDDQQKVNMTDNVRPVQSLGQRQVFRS

hCA I = target: T2, hCA I (Homo sapiens, UniProt P00915); test: CA esterase activity assay, isozyme hCA I; assay type: biochemical; details: Table 3; human (cloned) isozymes, esterase assay method; read-out: KI hCA I
T2 construct: made in house; host or cells: Escherichia coli BL21 (DE3)
T2 sequence (P00915 whole entry): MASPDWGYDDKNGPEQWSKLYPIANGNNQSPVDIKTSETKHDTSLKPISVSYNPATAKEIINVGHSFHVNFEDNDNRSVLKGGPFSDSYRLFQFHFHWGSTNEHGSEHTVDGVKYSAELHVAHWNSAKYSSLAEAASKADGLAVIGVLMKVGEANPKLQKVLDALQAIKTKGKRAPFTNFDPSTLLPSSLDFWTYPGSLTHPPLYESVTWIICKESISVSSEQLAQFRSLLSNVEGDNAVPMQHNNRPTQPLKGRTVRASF
Experimental: (§1) Human CA I and CA II cDNAs were expressed in Escherichia coli strain BL21 (DE3) from the plasmids pACA/hCA I and pACA/hCA II described by Lindskog's group [54].
(§2) Non-enzymatic hydrolysis rates were always subtracted from the observed rates. […] Inhibitor and enzyme solutions were preincubated together for 10 min at room temperature prior to assay, in order to allow for the formation of the E-I complex. The inhibition constant KI was determined as described in references [44, 76].

hCA II = target: T3, hCA II (Homo sapiens, UniProt P00918); test: CA esterase activity assay, isozyme hCA II; assay type: biochemical
T3 construct: made in house; host or cells: Escherichia coli BL21 (DE3)
Experimental: as §1, §2

MDCK-CA IX cells = test: Extracellular pH (pHe) of sulfonamide-treated MDCK-CA IX cells; assay type: cell-based, canine; details: 48 hours
Experimental: To maintain the standard conditions, the cells were always plated in 3 ml of culture medium at a density of 0.8-1×10^6 per 6 cm dish 24 hours before the transfer to hypoxia (2% O2 and 5% CO2 balanced with N2) generated in a Napco 7000 incubator. Parallel normoxic dishes were incubated in air with 5% CO2.
Compound 6 sulfonamide [4-(2-aminoethyl)-benzenesulfonamide] was from Sigma-Aldrich. […] The sulfonamides were dissolved in PBS with 20% DMSO at 100 mM concentration and diluted in a culture medium to a required final concentration just before their addition to cells. The cells were incubated for 48 hours in hypoxia and normoxia, respectively, the pH of the culture medium was measured and the binding of the FITC-labeled Compound 92 to living cells, washed three times with PBS, was viewed by a Nikon E400 epifluorescence microscope.

[1] = read-out: KI hCA IX, Table 3, catalytic domain of the human, cloned isozyme, CO2 hydrase assay method
[2] = Table 3, human (cloned) isozymes, esterase assay method, read-out: KI hCA II

- melting point: > 300 °C
Structure (SMILES): NS(=O)(=O)c1nnc(NS(=O)(=O)c2ccc(-[n+]3c(-c4ccccc4)cc(-c4ccccc4)cc3-c3ccccc3)cc2)s1 (as salt: perchlorate) [Compound 87, 1-N-[5-Sulfamoyl-1,3,4-thiadiazol-2-yl-(aminosulfonyl-4-phenyl)]-2,4,6-triphenyl-pyridinium perchlorate]

- melting point: 203 to 205 °C
Structure (SMILES): CC(C)(C)c1cc(-c2ccccc2)cc(-c2ccccc2)[n+]1-c1ccc(S(=O)(=O)Nc2nnc(S(N)(=O)=O)s2)cc1 (as salt: perchlorate) [Compound 85, 1-N-[5-Sulfamoyl-1,3,4-thiadiazol-2-yl-(aminosulfonyl-4-phenyl)]-2-tert-butyl-4,6-diphenylpyridinium perchlorate]

- melting point: 254 to 255 °C
Structure (SMILES): CCc1cc(-c2ccccc2)cc(-c2ccccc2)[n+]1-c1ccc(S(=O)(=O)Nc2nnc(S(N)(=O)=O)s2)cc1 (as salt: perchlorate) [Compound 81, 1-N-[5-Sulfamoyl-1,3,4-thiadiazol-2-yl-(aminosulfonyl-4-phenyl)]-2-ethyl-4,6-diphenylpyridinium perchlorate]

- melting point: 214 to 215 °C
Structure (SMILES): CCCc1cc(-c2ccccc2)cc(-c2ccccc2)[n+]1-c1ccc(S(=O)(=O)Nc2nnc(S(N)(=O)=O)s2)cc1 (as salt: perchlorate) [Compound 82, 1-N-[5-Sulfamoyl-1,3,4-thiadiazol-2-yl-(aminosulfonyl-4-phenyl)]-2-n-propyl-4,6-diphenylpyridinium perchlorate]

- melting point: 186 to 188 °C
Structure (SMILES): CC(C)c1cc(-c2ccccc2)cc(-c2ccccc2)[n+]1-c1ccc(S(=O)(=O)Nc2nnc(S(N)(=O)=O)s2)cc1 (as salt: perchlorate) [Compound 83, 1-N-[5-Sulfamoyl-1,3,4-thiadiazol-2-yl-(aminosulfonyl-4-phenyl)]-2-iso-propyl-4,6-diphenylpyridinium perchlorate]

- Ki (hCA IX): 3 to 9 nM
- Ki (hCA IX; [1]): 5 nM
- amount detected within the blood red cells (membrane penetration) (human red cells): detected only in very small amounts
- [sulfonamide] in red blood cells, EI (human red cells; 30 min): 0.5 µM
- [sulfonamide] in red blood cells, ES (human red cells; 30 min): 0.2 µM
- [sulfonamide] in red blood cells, HPLC (human red cells; 30 min): 0.3 µM
- [sulfonamide] in red blood cells, EI (human red cells; 60 min): 0.4 µM
- [sulfonamide] in red blood cells, ES (human red cells; 60 min): 0.6 µM
- [sulfonamide] in red blood cells, HPLC (human red cells; 60 min): 0.3 µM
- Ki (bCA IV): 2.4 nM
- Ki (hCA I): 3 nM
- Ki (hCA II; [2]): 0.3 nM
Structure (SMILES): Cc1cc(C)[n+](-c2ccc(S(=O)(=O)Nc3nnc(S(N)(=O)=O)s3)cc2)c(C)c1C [Compound 89, 1-N-[5-Sulfamoyl-1,3,4-thiadiazol-2-yl-(aminosulfonyl-4-phenyl)]-2,3,4,6-tetramethylpyridinium perchlorate]

- melting point: > 300 °C
Structure (SMILES): Cc1cc(C)[n+](-c2ccc(S(=O)(=O)Nc3nnc(S(N)(=O)=O)s3)cc2)c(C)c1C (as salt: perchlorate) [Compound 89, 1-N-[5-Sulfamoyl-1,3,4-thiadiazol-2-yl-(aminosulfonyl-4-phenyl)]-2,3,4,6-tetramethylpyridinium perchlorate]

- melting point: 241 to 243 °C
Structure (SMILES): CCCCc1cc(-c2ccccc2)cc(-c2ccccc2)[n+]1-c1ccc(S(=O)(=O)Nc2nnc(S(N)(=O)=O)s2)cc1 (as salt: perchlorate) [Compound 84, 1-N-[5-Sulfamoyl-1,3,4-thiadiazol-2-yl-(aminosulfonyl-4-phenyl)]-2-n-butyl-4,6-diphenylpyridinium perchlorate]

- melting point: 218 to 220 °C
Structure (SMILES): NS(=O)(=O)c1nnc(NS(=O)(=O)c2ccc(-[n+]3c(-c4ccccc4)cccc3-c3ccccc3)cc2)s1 (as salt: perchlorate) [Compound 88, 1-N-[5-Sulfamoyl-1,3,4-thiadiazol-2-yl-(aminosulfonyl-4-phenyl)]-2,6-diphenylpyridinium perchlorate]

- melting point: 298 to 299 °C
Structure (SMILES): Cc1cc(-c2ccccc2)cc(-c2ccccc2)[n+]1-c1ccc(S(=O)(=O)Nc2nnc(S(N)(=O)=O)s2)cc1 (as salt: perchlorate) [Compound 80, 1-N-[5-Sulfamoyl-1,3,4-thiadiazol-2-yl-(aminosulfonyl-4-phenyl)]-2-methyl-4,6-diphenylpyridinium perchlorate]

The next lines start with the molecule.

Structure (SMILES): Cc1cc(C)[n+](-c2ccc(S(=O)(=O)Nc3nnc(S(N)(=O)=O)s3)cc2)c(C)c1 (as salt: perchlorate) [Compound 71, 1-N-[5-Sulfamoyl-1,3,4-thiadiazol-2-yl-(aminosulfonyl-4-phenyl)]-2,4,6-trimethyl-pyridinium perchlorate]
- melting point: > 300 °C

Structure (SMILES): Cc1cc(C)[n+](-c2ccc(S(=O)(=O)Nc3nnc(S(N)(=O)=O)s3)cc2)c(C)c1 [Compound 71, 1-N-[5-Sulfamoyl-1,3,4-thiadiazol-2-yl-(aminosulfonyl-4-phenyl)]-2,4,6-trimethyl-pyridinium perchlorate]
- Ki (hCA IX): 3 to 9 nM
- times more effective than benzolamide in inhibiting CA IX (hCA IX; ratio of KI values): ~13
- Ki (hCA IX; [1]): 3 nM
- amount detected within the blood red cells (membrane penetration) (human red cells): detected only in very small amounts
- [sulfonamide] in red blood cells, EI (human red cells; 30 min): 0.5 µM
- [sulfonamide] in red blood cells, ES (human red cells; 30 min): 0.5 µM
- [sulfonamide] in red blood cells, HPLC (human red cells; 30 min): 0.3 µM
- [sulfonamide] in red blood cells, EI (human red cells; 60 min): 0.3 µM
- [sulfonamide] in red blood cells, ES (human red cells; 60 min): 0.5 µM
- [sulfonamide] in red blood cells, HPLC (human red cells; 60 min): 0.4 µM
- Ki (bCA IV): 2.1 nM
- Ki (hCA I): 4 nM
- Ki (hCA II; [2]): 0.26 nM
- Ki (hCA II; read-out: KI against CA II): 0.2 to 1.61 nM

Structure (SMILES): Cc1cc(-c2ccccc2)cc(C)[n+]1-c1ccc(S(=O)(=O)Nc2nnc(S(N)(=O)=O)s2)cc1 (as salt: perchlorate) [Compound 75, 1-N-[5-Sulfamoyl-1,3,4-thiadiazol-2-yl-(aminosulfonyl-4-phenyl)]-2,6-dimethyl-4-phenylpyridinium perchlorate]
- melting point: > 300 °C

Structure (SMILES): CCCc1cc(-c2ccccc2)cc(CCC)[n+]1-c1ccc(S(=O)(=O)Nc2nnc(S(N)(=O)=O)s2)cc1 (as salt: perchlorate) [Compound 77, 1-N-[5-Sulfamoyl-1,3,4-thiadiazol-2-yl-(aminosulfonyl-4-phenyl)]-2,6-di-n-propyl-4-phenylpyridinium perchlorate]
- melting point: 235 to 237 °C

Structure (SMILES): CCc1cc(-c2ccccc2)cc(CC)[n+]1-c1ccc(S(=O)(=O)Nc2nnc(S(N)(=O)=O)s2)cc1 [Compound 76, 1-N-[5-Sulfamoyl-1,3,4-thiadiazol-2-yl-(aminosulfonyl-4-phenyl)]-2,6-diethyl-4-phenylpyridinium perchlorate]
- Ki (hCA IX): 3 to 9 nM
- Ki (hCA IX; [1]): 9 nM
- amount detected within the blood red cells (membrane penetration) (human red cells): detected only in very small amounts
- [sulfonamide] in red blood cells, EI (human red cells; 30 min): 1.0 µM
- [sulfonamide] in red blood cells, ES (human red cells; 30 min): 1.1 µM
- [sulfonamide] in red blood cells, HPLC (human red cells; 30 min): 1.0 µM
- [sulfonamide] in red blood cells, EI (human red cells; 60 min): 1.1 µM
- [sulfonamide] in red blood cells, ES (human red cells; 60 min): 1.2 µM
- [sulfonamide] in red blood cells, HPLC (human red cells; 60 min): 1.1 µM
- Ki (bCA IV): 2.3 nM
- Ki (hCA I): 4 nM
- Ki (hCA II; [2]): 0.21 nM
- Ki (hCA II; Tables 1 and 3, read-out: KI against CA II): 0.2 to 1.61 nM

Structure (SMILES): NCCc1ccc(S(N)(=O)=O)cc1 [Compound 6, 4-(2-aminoethyl)-benzenesulfonamide]
- effect on extracellular acidification (MDCK-CA IX cells; hypoxia (2% O2)): able to reduce the extracellular acidification
- effect on the normoxic pHe (MDCK-CA IX cells; normoxia): negligible

Structure (SMILES): CC(C)c1cc(-c2ccccc2)cc(C(C)C)[n+]1-c1ccc(S(=O)(=O)Nc2nnc(S(N)(=O)=O)s2)cc1 (as salt: perchlorate) [Compound 79, 1-N-[5-Sulfamoyl-1,3,4-thiadiazol-2-yl-(aminosulfonyl-4-phenyl)]-2,6-di-isopropyl-4-phenylpyridinium perchlorate]
- melting point: 278 to 279 °C

Structure (SMILES): CCc1cc(-c2ccccc2)cc(CC)[n+]1-c1ccc(S(=O)(=O)Nc2nnc(S(N)(=O)=O)s2)cc1 (as salt: perchlorate) [Compound 76, 1-N-[5-Sulfamoyl-1,3,4-thiadiazol-2-yl-(aminosulfonyl-4-phenyl)]-2,6-diethyl-4-phenylpyridinium perchlorate]
- melting point: 267 to 268 °C

Structure (SMILES): Cc1cc(C(C)C)[n+](-c2ccc(S(=O)(=O)Nc3nnc(S(N)(=O)=O)s3)cc2)c(C(C)C)c1 (as salt: perchlorate) [Compound 73, 1-N-[5-Sulfamoyl-1,3,4-thiadiazol-2-yl-(aminosulfonyl-4-phenyl)]-2,6-di-iso-propyl-4-methylpyridinium perchlorate]
- melting point: 278 to 279 °C
